Experimental findings from PubChem BioAssay AID248 (DTP/NCI, 2004) are described below.

“And” between values parts separate entries of the source, which are not always exact repeats. Identical values can stand only once. Inconclusive results and toxic doses are left out.

For the experiment, the system named is L1210 leukemia ip in BDF1 mice, survival T/C. Nature of the experiment: NCI In Vivo Anticancer Drug Screen. Data for tumor model L1210 Leukemia (intraperitoneal) in B6D2F1 (BDF1) mice. Conditions: endpoint: mean survival time, higher = longer survival. In a few lines:
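Mice bearing the transplanted tumor received compound or vehicle. Survival of the treated group was divided by that of the vehicle-treated control group to give the ratio.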

Setting [1] is: dose: 50.0 mg/kg/injection, schedule: Q04DX003 (ip), vehicle: saline.
[2] abbreviates: dose: 100.0 mg/kg/injection, schedule: Q01DX009 (ip), vehicle: Klucel (hydroxypropylcellulose) (HPC).
Where [3] appears, read: dose: 200.0 mg/kg/injection, schedule: Q01DX009 (ip), vehicle: Klucel (hydroxypropylcellulose) (HPC).
Setting [4] is: dose: 400.0 mg/kg/injection, schedule: Q01DX009 (ip), vehicle: Klucel (hydroxypropylcellulose) (HPC).
[5] abbreviates: dose: 100.0 mg/kg/injection, schedule: Q01DX001 (ip), vehicle: carboxymethylcellulose (CMC).
Where [6] appears, read: dose: 200.0 mg/kg/injection, schedule: Q01DX001 (ip), vehicle: carboxymethylcellulose (CMC).
[7] abbreviates: dose: 400.0 mg/kg/injection, schedule: Q01DX001 (ip), vehicle: carboxymethylcellulose (CMC).
The mark [8] stands for this setting: dose: 75.0 mg/kg/injection, schedule: Q04DX003 (ip), vehicle: saline.
The mark [9] stands for this setting: dose: 150.0 mg/kg/injection, schedule: Q04DX003 (ip), vehicle: saline.
Where [10] appears, read: dose: 300.0 mg/kg/injection, schedule: Q04DX003 (ip), vehicle: saline.
The mark [11] stands for this setting: dose: 100.0 mg/kg/injection, schedule: Q01DX001 (ip), vehicle: Klucel (hydroxypropylcellulose) (HPC).
Setting [12] is: dose: 100.0 mg/kg/injection, schedule: Q04DX003 (ip), vehicle: Klucel (hydroxypropylcellulose) (HPC).
[13] abbreviates: dose: 200.0 mg/kg/injection, schedule: Q01DX001 (ip), vehicle: Klucel (hydroxypropylcellulose) (HPC).
[14] abbreviates: dose: 200.0 mg/kg/injection, schedule: Q04DX003 (ip), vehicle: Klucel (hydroxypropylcellulose) (HPC).
Setting [15] is: dose: 400.0 mg/kg/injection, schedule: Q01DX001 (ip), vehicle: Klucel (hydroxypropylcellulose) (HPC).
The mark [16] stands for this setting: dose: 400.0 mg/kg/injection, schedule: Q04DX003 (ip), vehicle: Klucel (hydroxypropylcellulose) (HPC).
Setting [17] is: dose: 100.0 mg/kg/injection, schedule: Q01DX009 (ip), vehicle: saline with Tween-80.
Where [18] appears, read: dose: 100.0 mg/kg/injection, schedule: Q04DX003 (ip), vehicle: saline.
Setting [19] is: dose: 200.0 mg/kg/injection, schedule: Q01DX009 (ip), vehicle: saline with Tween-80.
Where [20] appears, read: dose: 200.0 mg/kg/injection, schedule: Q04DX003 (ip), vehicle: saline.
The mark [21] stands for this setting: dose: 400.0 mg/kg/injection, schedule: Q01DX009 (ip), vehicle: saline with Tween-80.
Setting [22] is: dose: 400.0 mg/kg/injection, schedule: Q04DX003 (ip), vehicle: saline.
[23] abbreviates: dose: 100.0 mg/kg/injection, schedule: Q04DX003 (ip), vehicle: saline with Tween-80.
Setting [24] is: dose: 200.0 mg/kg/injection, schedule: Q04DX003 (ip), vehicle: saline with Tween-80.
[25] abbreviates: dose: 400.0 mg/kg/injection, schedule: Q04DX003 (ip), vehicle: saline with Tween-80.
The mark [26] stands for this setting: dose: 100.0 mg/kg/injection, schedule: Q04DX002 (ip), vehicle: Klucel (hydroxypropylcellulose) (HPC).
The mark [27] stands for this setting: dose: 200.0 mg/kg/injection, schedule: Q04DX002 (ip), vehicle: Klucel (hydroxypropylcellulose) (HPC).
The mark [28] stands for this setting: dose: 400.0 mg/kg/injection, schedule: Q04DX002 (ip), vehicle: Klucel (hydroxypropylcellulose) (HPC).
Setting [29] is: dose: 50.0 mg/kg/injection, schedule: Q01DX001 (ip), vehicle: carboxymethylcellulose (CMC).

Regarding `O=C(C[n+]1cccc(CO)c1)c1ccccc1`, the T/C is, setting by setting: (dose: 12.5 mg/kg/injection, schedule: Q04DX003 (ip), vehicle: saline) 102 % of control; (dose: 25.0 mg/kg/injection, schedule: Q04DX003 (ip), vehicle: saline) 103 % of control; under setting [1], 100 % of control.
`O=P(OCCCl)(OCCCl)C(c1ccccc1)(c1ccccc1)c1ccccc1`: the T/C by setting is: under setting [2], 105 % of control; under setting [3], 96 % of control; under setting [4], 93 % of control.
In the case of `Cc1cc2c(c(O)c1CN1CCOCC1)C1=C(CCCC1)C(C)(C)O2`, the T/C reads like this: under setting [5], 107 % of control; under setting [6], 91 % of control; under setting [7], 86 % of control.
With `CCC(=O)CC(=O)C(=O)OC`, the T/C (dose: 75.0 mg/kg/injection, schedule: Q01DX001 (ip), vehicle: saline) is 102 % of control; the T/C under setting [8] was 105 % of control; the T/C (dose: 150.0 mg/kg/injection, schedule: Q01DX001 (ip), vehicle: saline) is 100 % of control; the T/C under setting [9] is 103 % of control; the T/C (dose: 300.0 mg/kg/injection, schedule: Q01DX001 (ip), vehicle: saline) was 104 % of control; the T/C under setting [10] is 90 % of control.
With `c1ccc(Cc2cc(-c3ccccc3)n[nH]2)cc1`, the T/C runs as follows: under setting [11], 100 % of control; under setting [2], 110 % of control; under setting [12], 100 % of control; under setting [13], 101 % of control; under setting [3], 96 % of control; under setting [14], 93 % of control. The T/C is 103 % of control under setting [15], 100 % of control under setting [4] and 98 % of control under setting [16].
For the compound `CCCCCCCC(=O)CCCCC`, the T/C is 102 % of control under setting [17]; 98 % of control under setting [18]; 109 % of control under setting [19]; 96 % of control under setting [20]; 100 % of control under setting [21]; 93 % of control under setting [22].
Regarding `COc1ccc(C(=O)/C=C/c2ccc(O)cc2)cc1`, the T/C under setting [8] is 100 % of control, the T/C under setting [9] is 96 % of control and the T/C under setting [10] is 93 % of control.
As to `N#Cc1c(Oc2ccccc2)c(F)c(Oc2ccccc2)c(F)c1Oc1ccccc1`, the T/C was 100 % of control under setting [17], 91 % of control under setting [19] and 92 % of control under setting [21].
In the case of `Brc1ccccc1N=Nc1ccccc1Br`, the T/C under setting [23] is 92 % of control, the T/C under setting [24] was 91 % of control and the T/C under setting [25] is 107 % of control.
In the case of `C[N+](C)(C)CC1CCCC1C[N+](C)(C)C` (configuration not stated), the T/C is, setting by setting: under setting [1], 110 % of control; under setting [18], 96 % of control; under setting [20], 102 % of control; under setting [22], 90 % of control.
In the case of `O=c1c2cnc3c4cccnc4ccc3c2[nH]n1-c1ccccc1`, the T/C by setting is: under setting [26], 105 % of control; under setting [27], 109 % of control; under setting [28], 98 % of control.
Consider `CC(=O)Nc1ccc(/C=C/c2ccc([N+](=O)[O-])cc2)cc1`, for which the T/C is 100 % of control under setting [2]; 96 % of control under setting [26]; 100 % of control under setting [12]; 95 % of control under setting [3]; 93 % of control under setting [27]; 98 % of control under setting [14]. Further, the T/C is 92 % of control under setting [4], 104 % of control under setting [28] and 107 % of control under setting [16].
Take `Cc1ccc(Nc2ccc(Nc3ccc(CCO)cc3)c3c2C(=O)c2ccccc2C3=O)cc1`: the T/C reads like this: under setting [2], 96 % of control; under setting [3], 100 % of control; under setting [4], 89 % of control.
For `CC(=O)Nc1ccc2c(c1)Cc1cc(NC=O)ccc1-2`, the T/C is, setting by setting: under setting [29], 101 % of control; under setting [5], 95 % of control; under setting [17], 102 % of control; under setting [18], 97 % of control; under setting [6], 101 % of control; under setting [19], 95 % of control. Further, the T/C under setting [20] was 93 % of control, the T/C under setting [7] was 101 % of control, the T/C under setting [21] was 98 % of control and the T/C under setting [22] was 95 % of control.
With `COC(=O)C1=CN(C(=O)OC)CCC1`, the T/C reads like this: under setting [11], 95 % of control; under setting [13], 88 % of control; under setting [15], 92 % of control.
As for `CN(CC(=O)c1ccc(-c2ccccc2)cc1)C(=O)c1ccccc1`, the T/C by setting is: (dose: 75.0 mg/kg/injection, schedule: Q04DX003 (ip), vehicle: Klucel (hydroxypropylcellulose) (HPC)) 96 % of control; (dose: 150.0 mg/kg/injection, schedule: Q04DX003 (ip), vehicle: Klucel (hydroxypropylcellulose) (HPC)) 89 % of control; (dose: 300.0 mg/kg/injection, schedule: Q04DX003 (ip), vehicle: Klucel (hydroxypropylcellulose) (HPC)) 89 % of control.
As to `COc1cc(NS(C)(=O)=O)ccc1Nc1c2ccccc2nc2cc(C(F)(F)F)c(N)cc12`, the T/C by setting is: (dose: 50.0 mg/kg/injection, schedule: Q01DX009 (ip), vehicle: Klucel (hydroxypropylcellulose) (HPC)) 113 % of control and 123 % of control; (dose: 50.0 mg/kg/injection, schedule: Q04DX003 (ip), vehicle: Klucel (hydroxypropylcellulose) (HPC)) 118 % of control; under setting [12], 123 % of control; under setting [3], 153 % of control and 174 % of control; under setting [27], 162 % of control; under setting [28], 179 % of control. In addition, the T/C under setting [16] was 112 % of control.
Turning to `O=[N+]([O-])c1cccc(C=Nc2ccc(CCC3(CCl)OCCO3)cc2)c1`, the T/C (dose: 100.0 mg/kg/injection, schedule: Q01DX001 (ip), vehicle: gum acacia) is 96 % of control; the T/C (dose: 200.0 mg/kg/injection, schedule: Q01DX001 (ip), vehicle: gum acacia) was 98 % of control; the T/C (dose: 400.0 mg/kg/injection, schedule: Q01DX001 (ip), vehicle: gum acacia) is 98 % of control.
As for `O=C1C(=O)c2cc(Cl)ccc2-c2ccc(Cl)cc21`, the T/C is, setting by setting: under setting [29], 97 % of control; under setting [5], 106 % of control; under setting [6], 103 % of control; under setting [7], 97 % of control.
In the case of `Oc1c(Cl)c2nc3ccccc3nc2c2ccccc12`, the T/C by setting is: under setting [12], 95 % of control; under setting [14], 97 % of control; under setting [16], 98 % of control.
Consider `COC(=O)c1ccc(OC(=O)Nc2ccc(Br)cc2)cc1`, for which the T/C was 102 % of control under setting [2], 92 % of control under setting [3] and 92 % of control under setting [4].
In the case of `CCCCNC(=O)OCC`, the T/C under setting [29] is 102 % of control; the T/C (dose: 50.0 mg/kg/injection, schedule: Q01DX009 (ip), vehicle: saline with Tween-80) was 90 % of control; the T/C (dose: 88.0 mg/kg/injection, schedule: Q01DX001 (ip), vehicle: carboxymethylcellulose (CMC)) was 104 % of control and 92 % of control; the T/C under setting [5] is 98 % of control; the T/C under setting [17] is 95 % of control; the T/C (dose: 133.0 mg/kg/injection, schedule: Q01DX001 (ip), vehicle: carboxymethylcellulose (CMC)) was 93 % of control and 92 % of control. Moreover, the T/C runs as follows: under setting [6], 93 % of control and 92 % of control; under setting [19], 93 % of control; (dose: 300.0 mg/kg/injection, schedule: Q01DX001 (ip), vehicle: carboxymethylcellulose (CMC)) 96 % of control and 106 % of control; under setting [7], 102 % of control.
On to `Nc1nc(N)c2cc(CNc3ccc(C(=O)NC(CCCC(=O)O)C(=O)O)cc3)cnc2n1` (configuration not stated), for which the T/C is 158 % of control and 175 % of control under setting [23]; 154 % of control under setting [24]; 87 % of control under setting [25].
